From the kinase profiling compilation of Christmann-Franck et al. (2016)
Several values for one entry are separate records, joined by “and”; a condition that tells them apart may be missing. Equal values may be shown once.

Legend:
Experiment in all cases: KINOMEscan competition binding
Settings in all cases: compound 10.0 µM
AXL (human) = AXL (human) (UniProt P30530)
CAMK1G (human) = CAMK1G (human) (UniProt Q96NX5)
CAMK2D (human) = CAMK2D (human) (UniProt Q13557)
CDK5 (human) = CDK5 (human) (UniProt Q00535)
CHEK1 (human) = CHEK1 (human) (UniProt O14757)
CHUK (human) = CHUK (human) (UniProt O15111)
CSNK2A1 (human) = CSNK2A1 (human) (UniProt P68400)
DCLK3 (human) = DCLK3 (human) (UniProt Q9C098)
DMPK (human) = DMPK (human) (UniProt Q09013)
EPHA1 (human) = EPHA1 (human) (UniProt P21709)
FGFR1 (human) = FGFR1 (human) (UniProt P11362)
FLT1 (human) = FLT1 (human) (UniProt P17948)
GSK3B (human) = GSK3B (human) (UniProt P49841)
INSRR (human) = INSRR (human) (UniProt P14616)
ITK (human) = ITK (human) (UniProt Q08881)
LYN (human) = LYN (human) (UniProt P07948)
MAP2K1 (human) = MAP2K1 (human) (UniProt Q02750)
MAP2K2 (human) = MAP2K2 (human) (UniProt P36507)
MAP3K12 (human) = MAP3K12 (human) (UniProt Q12852)
MAPK12 (human) = MAPK12 (human) (UniProt P53778)
MAPKAPK2 (human) = MAPKAPK2 (human) (UniProt P49137)
MARK4 (human) = MARK4 (human) (UniProt Q96L34)
NEK5 (human) = NEK5 (human) (UniProt Q6P3R8)
NTRK2 (human) = NTRK2 (human) (UniProt Q16620)
PKN1 (human) = PKN1 (human) (UniProt Q16512)
PKN2 (human) = PKN2 (human) (UniProt Q16513)
PLK4 (human) = PLK4 (human) (UniProt O00444)
PRKCH (human) = PRKCH (human) (UniProt P24723)
RIPK1 (human) = RIPK1 (human) (UniProt Q13546)
ROCK2 (human) = ROCK2 (human) (UniProt O75116)
RPS6KA4 KD2 (human) = RPS6KA4 KD2 (human) (UniProt O75676)
RPS6KA6 KD1 (human) = RPS6KA6 KD1 (human) (UniProt Q9UK32)
SLK (human) = SLK (human) (UniProt Q9H2G2)
SRMS (human) = SRMS (human) (UniProt Q9H3Y6)
SRPK3 (human) = SRPK3 (human) (UniProt Q9UPE1)
SYK (human) = SYK (human) (UniProt P43405)
TSSK1B (human) = TSSK1B (human) (UniProt Q9BXA7)
TTK (human) = TTK (human) (UniProt P33981)
ULK3 (human) = ULK3 (human) (UniProt Q6PHR2)
CSF1R (human) = CSF1R (human) (UniProt P07333)

PKN1 (human), sequence (Q16512 whole entry, looked up): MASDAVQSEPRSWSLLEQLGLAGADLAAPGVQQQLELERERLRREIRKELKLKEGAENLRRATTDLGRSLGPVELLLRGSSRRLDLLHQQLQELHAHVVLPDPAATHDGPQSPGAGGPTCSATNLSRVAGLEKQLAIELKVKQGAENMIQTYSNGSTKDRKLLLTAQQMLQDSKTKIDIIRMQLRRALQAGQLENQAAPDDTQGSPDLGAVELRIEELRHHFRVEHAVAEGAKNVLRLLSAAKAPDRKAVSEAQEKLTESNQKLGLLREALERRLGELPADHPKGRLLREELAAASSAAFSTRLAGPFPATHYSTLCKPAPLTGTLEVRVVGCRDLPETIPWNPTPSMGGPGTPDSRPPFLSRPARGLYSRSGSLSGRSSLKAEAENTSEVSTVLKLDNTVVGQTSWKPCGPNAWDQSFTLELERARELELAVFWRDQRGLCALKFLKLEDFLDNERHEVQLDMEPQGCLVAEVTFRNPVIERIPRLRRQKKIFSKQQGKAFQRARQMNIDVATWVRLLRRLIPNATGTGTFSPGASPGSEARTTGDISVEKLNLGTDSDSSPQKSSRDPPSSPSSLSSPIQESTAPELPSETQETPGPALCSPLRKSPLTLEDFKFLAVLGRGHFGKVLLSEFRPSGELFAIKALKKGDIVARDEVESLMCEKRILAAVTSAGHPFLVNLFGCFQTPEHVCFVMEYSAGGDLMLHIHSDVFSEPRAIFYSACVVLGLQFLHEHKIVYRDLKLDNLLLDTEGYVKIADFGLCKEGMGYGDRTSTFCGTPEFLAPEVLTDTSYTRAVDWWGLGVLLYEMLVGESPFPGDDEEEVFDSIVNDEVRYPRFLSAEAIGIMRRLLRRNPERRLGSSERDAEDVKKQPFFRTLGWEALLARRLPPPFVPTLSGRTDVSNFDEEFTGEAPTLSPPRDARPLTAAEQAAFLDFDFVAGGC
EPHA1 (human), sequence (P21709 whole entry, looked up): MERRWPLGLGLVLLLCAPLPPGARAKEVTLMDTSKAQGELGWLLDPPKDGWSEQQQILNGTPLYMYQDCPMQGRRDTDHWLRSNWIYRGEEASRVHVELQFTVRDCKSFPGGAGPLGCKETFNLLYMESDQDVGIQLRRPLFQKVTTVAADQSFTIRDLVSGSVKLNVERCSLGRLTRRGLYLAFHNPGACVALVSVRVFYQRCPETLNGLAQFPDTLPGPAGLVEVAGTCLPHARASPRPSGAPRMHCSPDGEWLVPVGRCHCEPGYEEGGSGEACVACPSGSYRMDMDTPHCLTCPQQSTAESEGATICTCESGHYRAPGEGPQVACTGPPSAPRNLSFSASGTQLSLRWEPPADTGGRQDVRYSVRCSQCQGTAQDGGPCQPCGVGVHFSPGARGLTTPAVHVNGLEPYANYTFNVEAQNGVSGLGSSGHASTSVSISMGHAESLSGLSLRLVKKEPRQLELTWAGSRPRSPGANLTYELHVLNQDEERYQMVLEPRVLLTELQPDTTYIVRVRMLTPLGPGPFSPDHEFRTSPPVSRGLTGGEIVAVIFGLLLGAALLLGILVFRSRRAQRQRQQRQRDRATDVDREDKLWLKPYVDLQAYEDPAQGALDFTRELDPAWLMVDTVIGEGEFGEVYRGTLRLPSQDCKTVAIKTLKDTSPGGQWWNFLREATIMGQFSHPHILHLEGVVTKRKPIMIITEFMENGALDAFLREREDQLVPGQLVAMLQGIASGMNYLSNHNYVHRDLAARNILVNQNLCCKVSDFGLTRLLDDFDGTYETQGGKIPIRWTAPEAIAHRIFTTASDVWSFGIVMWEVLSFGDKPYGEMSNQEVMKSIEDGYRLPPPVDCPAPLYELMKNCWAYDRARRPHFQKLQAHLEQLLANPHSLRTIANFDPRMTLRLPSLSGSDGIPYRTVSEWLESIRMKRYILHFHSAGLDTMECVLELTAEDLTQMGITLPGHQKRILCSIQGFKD
FGFR1 (human), sequence (P11362 whole entry, looked up): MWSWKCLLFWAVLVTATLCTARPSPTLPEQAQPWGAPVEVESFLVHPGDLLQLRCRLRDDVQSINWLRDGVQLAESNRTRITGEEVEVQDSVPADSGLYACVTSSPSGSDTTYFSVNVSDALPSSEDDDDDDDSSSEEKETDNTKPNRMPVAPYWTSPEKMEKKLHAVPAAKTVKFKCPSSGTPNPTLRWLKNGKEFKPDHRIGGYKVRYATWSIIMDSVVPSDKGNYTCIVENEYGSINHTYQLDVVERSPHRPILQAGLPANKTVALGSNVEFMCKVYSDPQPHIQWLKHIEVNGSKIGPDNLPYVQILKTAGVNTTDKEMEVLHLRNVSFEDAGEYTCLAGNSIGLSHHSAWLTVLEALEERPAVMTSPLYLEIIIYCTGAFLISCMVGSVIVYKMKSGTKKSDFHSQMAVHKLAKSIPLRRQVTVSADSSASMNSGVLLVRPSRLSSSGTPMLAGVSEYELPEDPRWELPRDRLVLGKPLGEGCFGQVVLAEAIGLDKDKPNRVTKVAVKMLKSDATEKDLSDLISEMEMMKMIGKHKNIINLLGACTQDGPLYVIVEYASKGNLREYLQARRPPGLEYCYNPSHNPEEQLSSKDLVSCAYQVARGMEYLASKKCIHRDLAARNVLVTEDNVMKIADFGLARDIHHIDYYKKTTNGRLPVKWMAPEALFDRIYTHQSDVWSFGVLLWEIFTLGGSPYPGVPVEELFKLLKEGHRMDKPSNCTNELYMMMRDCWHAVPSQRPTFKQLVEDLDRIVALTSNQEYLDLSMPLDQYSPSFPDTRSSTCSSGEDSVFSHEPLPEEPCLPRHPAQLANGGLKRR
CAMK2D (human), sequence (Q13557 whole entry, looked up): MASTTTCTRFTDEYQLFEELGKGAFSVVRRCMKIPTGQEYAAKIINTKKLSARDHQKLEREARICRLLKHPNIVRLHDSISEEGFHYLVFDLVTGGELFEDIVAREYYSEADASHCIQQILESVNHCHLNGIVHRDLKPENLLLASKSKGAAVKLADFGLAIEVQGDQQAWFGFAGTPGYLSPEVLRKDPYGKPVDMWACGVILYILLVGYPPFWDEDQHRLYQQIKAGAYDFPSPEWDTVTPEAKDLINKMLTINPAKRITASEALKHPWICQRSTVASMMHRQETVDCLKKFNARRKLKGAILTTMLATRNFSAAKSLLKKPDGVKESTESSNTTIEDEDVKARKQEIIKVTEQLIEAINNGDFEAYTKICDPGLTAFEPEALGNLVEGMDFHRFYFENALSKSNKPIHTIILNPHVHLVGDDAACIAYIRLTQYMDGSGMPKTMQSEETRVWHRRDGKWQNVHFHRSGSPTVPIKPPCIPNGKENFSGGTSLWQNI
MAPKAPK2 (human), sequence (P49137 whole entry, looked up): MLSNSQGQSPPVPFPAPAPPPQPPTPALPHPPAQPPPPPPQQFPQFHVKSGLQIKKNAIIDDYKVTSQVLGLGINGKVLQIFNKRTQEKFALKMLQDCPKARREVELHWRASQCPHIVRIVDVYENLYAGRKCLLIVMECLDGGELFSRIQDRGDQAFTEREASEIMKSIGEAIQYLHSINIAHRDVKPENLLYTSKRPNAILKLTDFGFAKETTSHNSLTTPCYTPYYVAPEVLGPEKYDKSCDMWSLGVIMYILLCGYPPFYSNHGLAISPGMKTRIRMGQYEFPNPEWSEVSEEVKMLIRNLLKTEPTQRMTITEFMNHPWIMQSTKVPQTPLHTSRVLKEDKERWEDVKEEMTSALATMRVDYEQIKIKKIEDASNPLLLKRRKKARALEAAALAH
TSSK1B (human), sequence (Q9BXA7 whole entry, looked up): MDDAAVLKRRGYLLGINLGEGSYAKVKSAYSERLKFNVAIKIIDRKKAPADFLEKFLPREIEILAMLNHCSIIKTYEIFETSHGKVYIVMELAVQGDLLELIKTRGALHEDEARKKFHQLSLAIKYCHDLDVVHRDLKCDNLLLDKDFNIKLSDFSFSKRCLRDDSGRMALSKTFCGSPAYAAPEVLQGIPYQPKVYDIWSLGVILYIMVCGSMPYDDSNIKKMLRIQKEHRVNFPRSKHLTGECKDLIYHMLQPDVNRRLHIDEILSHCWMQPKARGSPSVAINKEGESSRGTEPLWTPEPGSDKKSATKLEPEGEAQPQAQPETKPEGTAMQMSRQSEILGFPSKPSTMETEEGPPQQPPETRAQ
PKN2 (human), sequence (Q16513 whole entry, looked up): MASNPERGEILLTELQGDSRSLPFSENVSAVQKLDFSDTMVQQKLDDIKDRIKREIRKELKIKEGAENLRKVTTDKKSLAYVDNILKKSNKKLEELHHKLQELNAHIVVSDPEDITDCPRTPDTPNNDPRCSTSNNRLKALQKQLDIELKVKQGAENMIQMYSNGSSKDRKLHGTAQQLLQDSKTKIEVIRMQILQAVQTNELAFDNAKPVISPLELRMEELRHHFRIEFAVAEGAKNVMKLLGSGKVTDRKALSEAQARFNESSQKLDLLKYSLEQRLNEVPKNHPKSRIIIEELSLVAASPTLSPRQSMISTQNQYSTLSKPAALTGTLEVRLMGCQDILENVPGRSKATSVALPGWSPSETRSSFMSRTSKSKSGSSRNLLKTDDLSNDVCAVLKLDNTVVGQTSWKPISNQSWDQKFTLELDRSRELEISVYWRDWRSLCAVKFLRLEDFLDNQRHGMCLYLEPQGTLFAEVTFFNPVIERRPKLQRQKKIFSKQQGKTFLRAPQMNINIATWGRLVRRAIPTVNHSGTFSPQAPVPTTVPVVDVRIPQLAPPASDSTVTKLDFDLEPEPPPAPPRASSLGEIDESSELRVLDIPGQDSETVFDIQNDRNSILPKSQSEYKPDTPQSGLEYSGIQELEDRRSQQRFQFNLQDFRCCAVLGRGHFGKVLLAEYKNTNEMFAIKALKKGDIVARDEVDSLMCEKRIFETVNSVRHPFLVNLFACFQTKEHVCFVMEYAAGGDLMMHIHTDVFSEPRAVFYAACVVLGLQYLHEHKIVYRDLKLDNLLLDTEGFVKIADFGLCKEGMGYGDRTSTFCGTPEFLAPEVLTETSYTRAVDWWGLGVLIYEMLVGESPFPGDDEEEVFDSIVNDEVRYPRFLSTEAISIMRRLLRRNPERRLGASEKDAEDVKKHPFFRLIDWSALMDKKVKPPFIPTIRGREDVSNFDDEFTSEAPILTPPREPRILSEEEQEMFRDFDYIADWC

Work on `Nc1ccc(-c2ccc3ncc4ccc(=O)n(-c5cccc(C(F)(F)F)c5)c4c3c2)cn1` yielded a kinase still bound, per cent of control (AXL (human)) of 74%, a kinase still bound, per cent of control (CAMK1G (human)) of 88% and a kinase still bound, per cent of control (CAMK2D (human)) of 85%. For the same molecule, the kinase still bound, per cent of control (CDK5 (human)) was 92%, the kinase still bound, per cent of control (CHEK1 (human)) was 86% and the kinase still bound, per cent of control (CHUK (human)) was 55%. It also gave a kinase still bound, per cent of control (CSNK2A1 (human)) of 79%, a kinase still bound, per cent of control (DCLK3 (human)) of 100% and a kinase still bound, per cent of control (DMPK (human)) of 95%. For the same molecule, the kinase still bound, per cent of control (EPHA1 (human)) was 93%, the kinase still bound, per cent of control (FGFR1 (human)) was 95% and the kinase still bound, per cent of control (FLT1 (human)) was 100%. For the same molecule, the kinase still bound, per cent of control (GSK3B (human)) was 100%, the kinase still bound, per cent of control (INSRR (human)) was 100% and the kinase still bound, per cent of control (ITK (human)) was 100%. For the same molecule, the kinase still bound, per cent of control (LYN (human)) was 100%, the kinase still bound, per cent of control (MAP2K1 (human)) was 100% and the kinase still bound, per cent of control (MAP2K2 (human)) was 100%. It also gave a kinase still bound, per cent of control (MAP3K12 (human)) of 100%, a kinase still bound, per cent of control (MAPK12 (human)) of 87% and a kinase still bound, per cent of control (MAPKAPK2 (human)) of 100%. For the same molecule, the kinase still bound, per cent of control (MARK4 (human)) was 100%, the kinase still bound, per cent of control (NEK5 (human)) was 94% and the kinase still bound, per cent of control (NTRK2 (human)) was 72%. For the same molecule, the kinase still bound, per cent of control (PKN1 (human)) was 100%, the kinase still bound, per cent of control (PKN2 (human)) was 72% and the kinase still bound, per cent of control (PLK4 (human)) was 100%. For the same molecule, the kinase still bound, per cent of control (PRKCH (human)) was 99%, the kinase still bound, per cent of control (RIPK1 (human)) was 100% and the kinase still bound, per cent of control (ROCK2 (human)) was 81%. For the same molecule, the kinase still bound, per cent of control (RPS6KA4 KD2 (human)) was 100%, the kinase still bound, per cent of control (RPS6KA6 KD1 (human)) was 80% and the kinase still bound, per cent of control (SLK (human)) was 100%. It also gave a kinase still bound, per cent of control (SRMS (human)) of 88%, a kinase still bound, per cent of control (SRPK3 (human)) of 95% and a kinase still bound, per cent of control (SYK (human)) of 100%. For the same molecule, the kinase still bound, per cent of control (TSSK1B (human)) was 100%, the kinase still bound, per cent of control (TTK (human)) was 42% and the kinase still bound, per cent of control (ULK3 (human)) was 100%.

With `N#Cc1c(NC(=O)c2cccc3ccccc23)sc2c1CCCC2` the kinase still bound, per cent of control (AXL (human)) was 88%, the kinase still bound, per cent of control (CAMK1G (human)) was 90% and the kinase still bound, per cent of control (CAMK2D (human)) was 93%. The kinase still bound, per cent of control (CDK5 (human)) was 100%, the kinase still bound, per cent of control (CHEK1 (human)) was 82% and the kinase still bound, per cent of control (CSF1R (human)) was 100% and 84%. The kinase still bound, per cent of control (CSNK2A1 (human)) was 89%, the kinase still bound, per cent of control (DCLK3 (human)) was 100% and the kinase still bound, per cent of control (DMPK (human)) was 83%. The kinase still bound, per cent of control (EPHA1 (human)) was 85%, the kinase still bound, per cent of control (FGFR1 (human)) was 99% and the kinase still bound, per cent of control (FLT1 (human)) was 87%. For the same molecule, the kinase still bound, per cent of control (GSK3B (human)) was 66%, the kinase still bound, per cent of control (INSRR (human)) was 100% and the kinase still bound, per cent of control (ITK (human)) was 89%. It also gave a kinase still bound, per cent of control (LYN (human)) of 78%, a kinase still bound, per cent of control (MAP2K1 (human)) of 98% and a kinase still bound, per cent of control (MAP2K2 (human)) of 100%. It also gave a kinase still bound, per cent of control (MAP3K12 (human)) of 79%, a kinase still bound, per cent of control (MAPK12 (human)) of 82% and a kinase still bound, per cent of control (MAPKAPK2 (human)) of 93%. The kinase still bound, per cent of control (MARK4 (human)) was 97%, the kinase still bound, per cent of control (NEK5 (human)) was 79% and the kinase still bound, per cent of control (NTRK2 (human)) was 100%. The kinase still bound, per cent of control (PKN1 (human)) was 94%, the kinase still bound, per cent of control (PKN2 (human)) was 81% and the kinase still bound, per cent of control (PLK4 (human)) was 82%. For the same molecule, the kinase still bound, per cent of control (PRKCH (human)) was 87%, the kinase still bound, per cent of control (RIPK1 (human)) was 87% and the kinase still bound, per cent of control (ROCK2 (human)) was 100%. For the same molecule, the kinase still bound, per cent of control (RPS6KA4 KD2 (human)) was 100%, the kinase still bound, per cent of control (RPS6KA6 KD1 (human)) was 70% and the kinase still bound, per cent of control (SLK (human)) was 82%. The kinase still bound, per cent of control (SRMS (human)) was 84%, the kinase still bound, per cent of control (SRPK3 (human)) was 100% and the kinase still bound, per cent of control (SYK (human)) was 99%. The kinase still bound, per cent of control (TSSK1B (human)) was 100%, the kinase still bound, per cent of control (TTK (human)) was 91% and the kinase still bound, per cent of control (ULK3 (human)) was 94%.

`O=C(NOC[C@H](O)CO)c1ccc(F)c(F)c1Nc1ccc(I)cc1F` showed a kinase still bound, per cent of control (AXL (human)) of 83%, a kinase still bound, per cent of control (CAMK1G (human)) of 100% and a kinase still bound, per cent of control (CAMK2D (human)) of 100%. It also gave a kinase still bound, per cent of control (CDK5 (human)) of 100%, a kinase still bound, per cent of control (CHEK1 (human)) of 74% and a kinase still bound, per cent of control (CHUK (human)) of 100%. The kinase still bound, per cent of control (CSF1R (human)) was 100% and 80%, the kinase still bound, per cent of control (CSNK2A1 (human)) was 77% and the kinase still bound, per cent of control (DCLK3 (human)) was 100%. It also gave a kinase still bound, per cent of control (DMPK (human)) of 90%, a kinase still bound, per cent of control (EPHA1 (human)) of 91% and a kinase still bound, per cent of control (FGFR1 (human)) of 100%. For the same molecule, the kinase still bound, per cent of control (FLT1 (human)) was 94%, the kinase still bound, per cent of control (GSK3B (human)) was 68% and the kinase still bound, per cent of control (INSRR (human)) was 81%. For the same molecule, the kinase still bound, per cent of control (ITK (human)) was 97%, the kinase still bound, per cent of control (LYN (human)) was 72% and the kinase still bound, per cent of control (MAP2K2 (human)) was 0.2%. It also gave a kinase still bound, per cent of control (MAP3K12 (human)) of 78%, a kinase still bound, per cent of control (MAPK12 (human)) of 100% and a kinase still bound, per cent of control (MAPKAPK2 (human)) of 84%. For the same molecule, the kinase still bound, per cent of control (MARK4 (human)) was 100%, the kinase still bound, per cent of control (NEK5 (human)) was 78% and the kinase still bound, per cent of control (NTRK2 (human)) was 100%. The kinase still bound, per cent of control (PKN1 (human)) was 100%, the kinase still bound, per cent of control (PKN2 (human)) was 100% and the kinase still bound, per cent of control (PLK4 (human)) was 86%. The kinase still bound, per cent of control (PRKCH (human)) was 100%, the kinase still bound, per cent of control (RIPK1 (human)) was 85% and the kinase still bound, per cent of control (ROCK2 (human)) was 100%. It also gave a kinase still bound, per cent of control (RPS6KA4 KD2 (human)) of 100%, a kinase still bound, per cent of control (RPS6KA6 KD1 (human)) of 75% and a kinase still bound, per cent of control (SLK (human)) of 93%. The kinase still bound, per cent of control (SRMS (human)) was 95%, the kinase still bound, per cent of control (SRPK3 (human)) was 100% and the kinase still bound, per cent of control (SYK (human)) was 100%. For the same molecule, the kinase still bound, per cent of control (TSSK1B (human)) was 100%, the kinase still bound, per cent of control (TTK (human)) was 100% and the kinase still bound, per cent of control (ULK3 (human)) was 89%.
